Assay results published in article PMC6515479, “An Investigation on Glucuronidation Metabolite Identification, Isozyme Contribution, and Species Differences of GL-V9 In Vitro and In Vivo” (Molecules, 2019).

Columns and labels:
Type in all cases: in vitro ADME
rUGT1A9 = target: T1, rUGT1A9 (Homo sapiens, UniProt O60656); assay: Recombinant enzyme kinetics of GL-V9 glucuronidation, rUGT1A9; details: formation of 5-O-glucuronide GL-V9; rUGT1A9, protein 0.06 mg/mL, 1 h at 37 °C; mean ± SD, n = 3
T1 construct: purchased Corning (Woburn, MA, USA)
T1 sequence (O60656 26-530): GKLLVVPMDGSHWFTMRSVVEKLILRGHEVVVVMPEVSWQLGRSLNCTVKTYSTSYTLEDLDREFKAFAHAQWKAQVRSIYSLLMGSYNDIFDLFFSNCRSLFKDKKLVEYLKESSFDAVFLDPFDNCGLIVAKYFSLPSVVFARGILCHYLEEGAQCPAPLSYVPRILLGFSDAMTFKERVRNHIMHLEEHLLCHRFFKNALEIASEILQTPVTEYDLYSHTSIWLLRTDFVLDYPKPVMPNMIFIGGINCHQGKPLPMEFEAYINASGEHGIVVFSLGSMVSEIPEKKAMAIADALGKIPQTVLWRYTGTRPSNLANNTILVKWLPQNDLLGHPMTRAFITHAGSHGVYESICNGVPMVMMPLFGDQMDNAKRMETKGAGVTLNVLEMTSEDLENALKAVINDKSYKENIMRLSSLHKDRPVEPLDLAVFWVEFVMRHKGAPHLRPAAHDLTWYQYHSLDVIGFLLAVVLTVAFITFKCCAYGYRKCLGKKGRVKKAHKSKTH

[1] = Enzyme kinetics of GL-V9 glucuronidation in human liver microsomes (HLMs); details: human, liver microsomes, pH 7.4, formation of 5-O-glucuronide GL-V9, protein 0.075 mg/mL, mean ± SD, n = 3
Experimental: (§1) The composition of the incubation system (200 μL) contained liver microsomes of different species (0.1 mg protein/mL), 5 mM saccharolactone (D-saccharic acid 1,4-lactone monohydrate), 10 mM MgCl2, alamethicin (50 μg/mg protein), Tris-HCl buffer (50 mM, pH 7.4) and GL-V9 (1 μM). After 5 min of preincubation at 37 °C, UDPGA (5 mM) was added to initiate the phase II reaction. Control incubation samples were performed without UDPGA or without substrates (GL-V9). The reaction was terminated by addition of ice-cold methanol (three volumes) after incubation for 1 h at 37 °C. Samples were vortexed, centrifuged at 21,500× g for 10 min and then stored at 4 °C until HPLC-UV-TripleTOF analysis. To confirm that these metabolites are conjugates resulting from glucuronidation reaction, enzymatic hydrolysis of samples was processed. β-glucuronidase (100 KU, Sigma) was added and the hydrolysis was performed overnight at 37 °C. The control samples were carried out without β-glucuronidase under the same condition.
(§2) Enzyme kinetics experiments were carried out in triplicate among five different species, including monkey, beagle dog, rat, mouse, and human. The reaction system and operations are as same as described in Section 4.3. The solutions of GL-V9 were selected over a range of concentrations (0.05, 0.2, 0.5, 1, 2, 5, 10, 20 μM). […]

[2] = system: human liver microsomes (HLMs); assay: as above; details: formation of 5-O-glucuronide GL-V9, protein 0.075 mg/mL, mean ± SD, n = 3
Experimental: as §1, §2

rUGT1A4 = target: T2, rUGT1A4 (Homo sapiens, UniProt P22310); assay: UGT phenotyping of GL-V9 glucuronidation, rUGT1A4; details: GL-V9 0.5, 1, 5 μM, 37 °C, 1 h
T2 construct: purchased Corning (Woburn, MA, USA)
T2 sequence (P22310 29-534): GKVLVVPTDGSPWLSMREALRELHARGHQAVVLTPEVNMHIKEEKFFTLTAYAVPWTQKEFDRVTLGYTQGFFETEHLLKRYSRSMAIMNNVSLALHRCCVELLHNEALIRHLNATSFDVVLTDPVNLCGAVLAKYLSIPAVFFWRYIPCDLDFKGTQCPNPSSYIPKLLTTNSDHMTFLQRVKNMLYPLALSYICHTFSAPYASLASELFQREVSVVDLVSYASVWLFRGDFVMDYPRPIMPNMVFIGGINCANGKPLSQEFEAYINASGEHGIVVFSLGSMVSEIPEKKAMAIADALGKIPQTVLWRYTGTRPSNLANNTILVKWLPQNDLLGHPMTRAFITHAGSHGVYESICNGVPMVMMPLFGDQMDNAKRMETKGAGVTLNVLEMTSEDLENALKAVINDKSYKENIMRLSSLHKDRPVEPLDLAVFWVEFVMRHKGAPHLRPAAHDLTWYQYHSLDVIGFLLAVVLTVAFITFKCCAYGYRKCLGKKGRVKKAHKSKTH
Experimental: as §1
Twelve human recombinant UGT isoforms (rUGT1A1, rUGT1A3, rUGT1A4, rUGT1A6, rUGT1A7, rUGT1A8, rUGT1A9, rUGT1A10, rUGT2B4, rUGT2B7, rUGT2B15, and rUGT2B17) were employed to identify the main UGT enzyme(s) responsible for glucuronidation of GL-V9 under mixture conditions as described in Section 4.3. […]

**Q.** Which Vmax (rUGT1A9) does the source give for `COc1c(OCCCCN2CCCC2)cc(O)c2c(=O)cc(-c3ccccc3)oc12` [GL-V9] here?
**A.** The Vmax was 148.1 ± 2.56 pmol/min/mg.

**Q.** What about the Km at 1 h [1] of the same molecule?
**A.** Its Km at 1 h is 11.2 ± 0.66 µM.

**Q.** What about the Vmax [2] of the same molecule?
**A.** The Vmax was 88.49 ± 4.21 pmol/min/mg.

**Q.** And the “Metabolism rate (glucuronidation)” value (rUGT1A4)?
**A.** Its value is “too low to be biologically relevant”.
